Results from patent US9399759B2, “Method for producing neurospheres” (Keio University, priority 2008, dated 2016).

What was measured:
human fibroblasts = test: Effect of LIF, cAMP and Y27632 on number of human neurospheres formed (Example 2); format: cell-based; settings: media with cAMP in place of or in addition to LIF, or cAMP, FIG. 4B
Protocol: (§1) The dedifferentiation factor-introduced fibroblasts cultured as above were dissociated by washing with 0.25% trypsin EDTA, resuspended in 10 ml of DMEM/F-12 serum-free medium (1:1, Invitrogen; containing 0.6% D-glucose, 5 mM HEPES, 3 mM NaHCO3, 2 mM glutamine, 25 ug/ml insulin, 100 ug/ml transferrin, 20 nM progesterone, 60 uM putrescine and 30 nM sodium selenate) supplemented with LIF (recombinant human LIF; Chemi-Con, 100 U/ml) and FGF (PeproTech, 20 ng/ml) at the density of 50 cells/ul, seeded in bacterial plastic culture dishes, and cultured in suspension under the conditions of 37° C. and 5% CO2 with exchanging the culture media every 14 days. On Day 3 and Day 20 during the suspension culture, the states of the cells were observed.
In the case of human fibroblasts, the culture media were supplemented with cAMP in place of or in addition to LIF or with cAMP, LIF and a ROCK inhibitor Y27632, and the number of the neurospheres obtained from 250000 cells was counted.

[1] = system: dedifferentiation factor-introduced fibroblasts; test: Effect of cell death inhibitors on induction of differentiation into mouse neurospheres (Example 2); format: cell-based; settings: Day 20 of the culture, FIG. 4A
Protocol: as §1
In order to examine the improvement of the efficiency for the induction of differentiation into neurospheres by cell death inhibitors of N-acetyl-L-cysteine (NAC) and 8-chlorophenylthio (pCPT-cAMP), a membrane-permeable analog of cAMP, media supplemented with either or both of 1 mM of NAC(Sigma) and 100 uM of pCPT-cAMP (Sigma) were used in the suspension culture as described in Example 1. Other procedures were followed in the same way as described in Example 1, and numbers of neurospheres on Day 20 of the culture were counted.

Molecule | effect on neurosphere formation (number of neurospheres obtained from 250000 cells) (human fibroblasts) | increase of number of neurospheres per 10 ml of the medium as compared to Control Group ([1]; only pCPT-cAMP added, 100 uM, adult mouse fibroblasts) | number of neurospheres as compared to the Control Group ([1]; only NAC added, 1 mM)
Nc1ncnc2c1nc(Sc1ccc(Cl)cc1)n2[C@@H]1O[C@@H]2COP(=O)([O-])O[C@H]2[C@H]1O.[Na+] [pCPT-cAMP, 8-chlorophenylthio (pCPT-cAMP)] | additive effect | over 100 fold | –
CC(=O)N[C@@H](CS)C(=O)O [NAC, N-acetyl-L-cysteine] | – | – | no difference was observed
C[C@@H](N)[C@H]1CC[C@H](C(=O)Nc2ccncc2)CC1 [Y27632] | no effect | – | –
LIF: recombinant human LIF; Chemi-Con; growth factor added to the medium | additive effect | – | –
